Laboratory results taken from PubChem BioAssay (NCI).
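A five-concentration, 48-hour dose response in 96-well plates underlies each endpoint, interpolated linearly between surrounding concentrations. Definition used: TGI = concentration required for complete inhibition of growth.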

Experiments:
Assay in all cases: NCI tumour cell line growth inhibition, 48 h
[1] = system: 786-0 renal
[2] = system: A498 renal
[3] = system: A549 NSCLC
[4] = system: ACHN renal
[5] = system: BT-549 breast
[6] = system: CAKI-1 renal
[7] = system: CCRF-CEM leukemia
[8] = system: COLO 205 colon
[9] = system: DU-145 prostate
[10] = system: EKVX NSCLC
[11] = system: HCC-2998 colon
[12] = system: HCT-116 colon
[13] = system: HCT-15 colon
[14] = system: HL-60(TB) leukemia
[15] = system: HOP-62 NSCLC
[16] = system: HOP-92 NSCLC
[17] = system: HS 578T breast
[18] = system: HT29 colon
[19] = system: IGROV1 ovarian
[20] = system: K-562 leukemia
[21] = system: KM12 colon
[22] = system: LOX IMVI melanoma
[23] = system: MALME-3M melanoma
[24] = system: MDA-MB-231 breast
[25] = system: MDA-MB-435
[26] = system: MDA-N
[27] = system: MOLT-4 leukemia
[28] = system: NCI-H226 lung
[29] = system: NCI-H23 lung
[30] = system: NCI-H460 lung
[31] = system: NCI-H522 lung
[32] = system: NCI/ADR-RES ovarian
[33] = system: OVCAR-3 ovarian
[34] = system: OVCAR-4 ovarian
[35] = system: OVCAR-5 ovarian
[36] = system: OVCAR-8 ovarian
[37] = system: PC-3 prostate
[38] = system: RPMI-8226 leukemia
[39] = system: RXF 393 renal
[40] = system: SF-295 CNS
[41] = system: SF-539 CNS
[42] = system: SK-MEL-2 melanoma
[43] = system: SK-MEL-28 melanoma
[44] = system: SK-MEL-5 melanoma
[45] = system: SN12C renal
[46] = system: SNB-75 CNS
[47] = system: SR leukemia
[48] = system: SW-620 colon
[49] = system: T-47D breast
[50] = system: TK-10 renal
[51] = system: U251 CNS
[52] = system: UACC-257 melanoma
[53] = system: UACC-62 melanoma
[54] = system: UO-31 renal
[55] = system: M14 melanoma
[56] = system: MCF7 breast
[57] = system: SF-268 CNS
[58] = system: SK-OV-3 ovarian
[59] = system: SNB-19 CNS

CS(=O)(=O)Nc1ccc2c(c1)N(S(C)(=O)=O)CC2COS(C)(=O)=O (configuration not stated)
TGI [1]: > 100 µM | TGI [2]: > 100 µM | TGI [3]: > 100 µM | TGI [4]: > 100 µM | TGI [5]: > 100 µM | TGI [6]: > 100 µM | TGI [7]: > 100 µM | TGI [8]: > 100 µM | TGI [9]: > 100 µM | TGI [10]: > 100 µM | TGI [11]: > 100 µM | TGI [12]: > 100 µM | TGI [13]: > 100 µM | TGI [14]: 88.3 µM | TGI [15]: 70.9 µM | TGI [16]: > 100 µM | TGI [17]: > 100 µM | TGI [18]: > 100 µM | TGI [19]: > 100 µM | TGI [20]: > 100 µM | TGI [21]: > 100 µM | TGI [22]: > 100 µM | TGI [23]: > 100 µM | TGI [24]: > 100 µM | TGI [25]: > 100 µM | TGI [26]: > 100 µM | TGI [27]: > 100 µM | TGI [28]: > 100 µM | TGI [29]: > 100 µM | TGI [30]: > 100 µM | TGI [31]: 43.1 µM | TGI [32]: > 100 µM | TGI [33]: > 100 µM | TGI [34]: > 100 µM | TGI [35]: > 100 µM | TGI [36]: > 100 µM | TGI [37]: > 100 µM | TGI [38]: 81.4 µM | TGI [39]: 41.5 µM | TGI [40]: > 100 µM | TGI [41]: > 100 µM | TGI [42]: 71.7 µM | TGI [43]: > 100 µM | TGI [44]: 40.7 µM | TGI [45]: > 100 µM | TGI [46]: > 100 µM | TGI [47]: 93.2 µM | TGI [48]: > 100 µM | TGI [49]: > 100 µM | TGI [50]: > 100 µM | TGI [51]: 59.2 µM | TGI [52]: > 100 µM | TGI [53]: > 100 µM | TGI [54]: > 100 µM

CC1(C)OCC(C2OC(OC(=O)c3ccc(C(F)(F)F)cc3)C3OC(C)(C)OC23)O1 (configuration not stated)
TGI [1]: > 77.5 µM | TGI [2]: > 77.5 µM | TGI [3]: > 77.5 µM | TGI [4]: > 77.5 µM | TGI [5]: > 77.5 µM | TGI [6]: > 77.5 µM | TGI [7]: > 77.5 µM | TGI [8]: > 77.5 µM | TGI [9]: > 77.5 µM | TGI [10]: > 77.5 µM | TGI [11]: > 77.5 µM | TGI [12]: > 77.5 µM | TGI [13]: > 77.5 µM | TGI [15]: > 77.5 µM | TGI [18]: > 77.5 µM | TGI [19]: > 77.5 µM | TGI [20]: > 77.5 µM | TGI [21]: > 77.5 µM | TGI [22]: > 77.5 µM | TGI [55]: > 77.5 µM | TGI [23]: > 77.5 µM | TGI [56]: > 77.5 µM | TGI [24]: > 77.5 µM | TGI [25]: > 77.5 µM | TGI [26]: > 77.5 µM | TGI [27]: > 77.5 µM | TGI [28]: > 77.5 µM | TGI [29]: > 77.5 µM | TGI [30]: > 77.5 µM | TGI [31]: > 77.5 µM | TGI [32]: > 77.5 µM | TGI [33]: > 77.5 µM | TGI [34]: > 77.5 µM | TGI [35]: > 77.5 µM | TGI [36]: > 77.5 µM | TGI [37]: > 77.5 µM | TGI [38]: > 77.5 µM | TGI [39]: > 77.5 µM | TGI [57]: > 77.5 µM | TGI [40]: > 77.5 µM | TGI [41]: > 77.5 µM | TGI [42]: > 77.5 µM | TGI [43]: > 77.5 µM | TGI [44]: > 77.5 µM | TGI [58]: > 77.5 µM | TGI [45]: > 77.5 µM | TGI [59]: > 77.5 µM | TGI [46]: > 77.5 µM | TGI [47]: > 77.5 µM | TGI [48]: > 77.5 µM | TGI [50]: > 77.5 µM | TGI [51]: > 77.5 µM | TGI [52]: > 77.5 µM | TGI [53]: > 77.5 µM | TGI [54]: > 77.5 µM

CCCCS/C(=C(/C#N)C(N)=O)c1cc2c([nH]1)CCCC2
TGI [1]: 24 µM | TGI [2]: 31.4 µM | TGI [3]: > 100 µM | TGI [4]: 39.7 µM | TGI [5]: 27.8 µM | TGI [6]: 29.5 µM | TGI [7]: 48.9 µM | TGI [8]: 27.9 µM | TGI [9]: 25.4 µM | TGI [10]: 24.4 µM | TGI [11]: 26.7 µM | TGI [12]: 23 µM | TGI [13]: 21.4 µM | TGI [14]: 11.6 µM | TGI [15]: 72 µM | TGI [16]: 38.7 µM | TGI [18]: 15 µM | TGI [20]: > 100 µM | TGI [21]: 23.5 µM | TGI [22]: 21.1 µM | TGI [23]: 23.8 µM | TGI [56]: 50.4 µM | TGI [24]: 30.3 µM | TGI [25]: 11.9 µM | TGI [26]: 18.3 µM | TGI [27]: 38.6 µM | TGI [28]: 34.7 µM | TGI [29]: 36.7 µM | TGI [30]: 48.3 µM | TGI [32]: 28.6 µM | TGI [33]: 36.5 µM | TGI [34]: 36.1 µM | TGI [35]: > 100 µM | TGI [36]: 36.5 µM | TGI [37]: 46.5 µM | TGI [38]: 29.6 µM | TGI [39]: 38.6 µM | TGI [57]: 26.7 µM | TGI [40]: 28.5 µM | TGI [41]: 30 µM | TGI [42]: 34.7 µM | TGI [43]: 28.2 µM | TGI [44]: 26.7 µM | TGI [58]: 93.8 µM | TGI [45]: 43.1 µM | TGI [59]: 34.4 µM | TGI [46]: 29.1 µM | TGI [48]: 24.6 µM | TGI [50]: 29 µM | TGI [51]: 31.2 µM | TGI [52]: 32.4 µM | TGI [53]: 22.8 µM | TGI [54]: 25.8 µM
